# Source: BindingDB's records for patent WO2022098806 (MERCK SHARP & DOHME LLC, 2022)
# pIC50: −log10 of the molar value.
# Biological target: Mitogen-activated protein kinase kinase kinase kinase 1 (Homo sapiens, UniProt Q92918)
# Test: HPK1-SLP76 TR-FRET ASSAY
# Chain of Mitogen-activated protein kinase kinase kinase kinase 1 (Q92918 whole entry): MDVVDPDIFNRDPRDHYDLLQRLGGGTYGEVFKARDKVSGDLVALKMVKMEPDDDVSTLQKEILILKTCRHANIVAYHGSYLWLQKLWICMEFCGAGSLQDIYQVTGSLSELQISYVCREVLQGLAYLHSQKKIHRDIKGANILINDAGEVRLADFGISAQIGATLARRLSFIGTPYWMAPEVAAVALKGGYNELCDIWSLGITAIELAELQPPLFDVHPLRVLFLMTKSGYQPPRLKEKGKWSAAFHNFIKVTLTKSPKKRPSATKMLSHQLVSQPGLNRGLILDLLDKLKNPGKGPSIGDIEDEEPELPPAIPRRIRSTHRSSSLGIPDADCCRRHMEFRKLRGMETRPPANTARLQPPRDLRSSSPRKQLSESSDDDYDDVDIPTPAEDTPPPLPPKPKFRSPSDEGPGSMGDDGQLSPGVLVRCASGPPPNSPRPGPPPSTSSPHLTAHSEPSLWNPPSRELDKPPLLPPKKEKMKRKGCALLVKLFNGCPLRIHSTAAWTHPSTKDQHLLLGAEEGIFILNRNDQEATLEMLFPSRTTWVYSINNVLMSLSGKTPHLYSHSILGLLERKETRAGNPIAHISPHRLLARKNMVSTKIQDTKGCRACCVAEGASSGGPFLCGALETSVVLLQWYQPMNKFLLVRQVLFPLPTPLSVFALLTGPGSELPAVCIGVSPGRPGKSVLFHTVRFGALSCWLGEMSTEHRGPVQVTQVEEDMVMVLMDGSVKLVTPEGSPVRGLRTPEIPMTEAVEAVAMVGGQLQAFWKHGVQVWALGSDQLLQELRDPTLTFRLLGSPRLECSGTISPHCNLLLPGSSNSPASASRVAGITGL
row,pIC50,Compound
1,8.00,"COc1cc2c(cc1Nc1ncc3ccc(-c4cncc5cccnc45)cc3n1)CN(C)CC2 [WO2022098806, Compound 1-24]"
2,7.96,"COc1cc2c(cc1Nc1ncc3ccc(-c4cnn(C(F)F)c4)cc3n1)CN(C)CC2 [WO2022098806, Compound 1-26]"
3,6.74,"COc1cc2c(cc1Nc1ncc3ccc(-c4cncc(NS(C)(=O)=O)c4)cc3n1)CNCC2 [WO2022098806, Compound 1-36]"
4,7.55,"COc1cc2c(cc1Nc1ncc3ccc(-c4cnccc4Cl)cc3n1)CNCC2 [WO2022098806, Compound 1-37]"
5,7.41,"COc1cc2c(cc1Nc1ncc3ccc(-c4cncc(N5CCOCC5)c4)cc3n1)CNCC2 [WO2022098806, Compound 1-42]"
6,7.96,"CCCC(=O)Nc1cncc(-c2ccc3cnc(Nc4cc5c(cc4OC)CCNC5)nc3c2)c1 [WO2022098806, Compound 1-52]"
7,7.70,"COc1cc2c(cc1Nc1ncc3ccc(-c4cccc(CO)c4)cc3n1)CNCC2 [WO2022098806, Compound 1-60]"
8,7.60,"COc1cc2c(cc1Nc1ncc3ccc(-c4cccc(S(=O)(=O)N5CCOCC5)c4)cc3n1)CNCC2 [WO2022098806, Compound 1-77]"
9,7.82,"COc1cc2c(cc1Nc1ncc3ccc(-c4cccc(S(=O)(=O)N5CCCCC5)c4)cc3n1)CNCC2 [WO2022098806, Compound 1-82]"
10,6.69,"COc1cc2c(cc1Nc1ncc3ccc(-c4cccc(NCC(C)=O)c4)cc3n1)CN(C)CC2 [WO2022098806, Compound 1-98]"
11,6.92,"COc1cc2c(cc1Nc1ncc3ccc(-c4cccc(C5CCC(=O)N5)c4)cc3n1)CN(C)CC2 (stereo not drawn) [WO2022098806, Compound 1-99]"
12,7.66,"COc1cc2c(cc1Nc1ncc3ccc(-c4cnn(CC(C)O)c4)cc3n1)CN(C)CC2 (stereo not drawn) [WO2022098806, Compound 1-102]"
13,10.05,"Cc1c(-c2cc3nc(Nc4ccc5c(c4)CN(C)CC5)ncc3cc2F)cnc2c1NCCO2 [WO2022098806, Compound 1-114]"
14,10.30,"Cc1c(-c2cc3nc(Nc4ccc(CS(C)(=O)=O)cc4)ncc3cc2F)cnc2c1NCCO2 [WO2022098806, Compound 1-115]"
15,9.66,"CNC(=O)[C@@H](C)c1ccc(Nc2ncc3cc(F)c(-c4cnc5c(c4C)NCCO5)cc3n2)cc1 [WO2022098806, Compound 1-116]"
16,10.15,"CNC(=O)[C@H](C)c1ccc(Nc2ncc3cc(F)c(-c4cnc5c(c4C)NCCO5)cc3n2)cc1 [WO2022098806, Compound 1-117]"
17,10.40,"CNC(=O)[C@@H]1CCc2cc(Nc3ncc4cc(F)c(-c5cnc6c(c5C)NCCO6)cc4n3)ccc21 [WO2022098806, Compound 1-118]"
18,8.93,"CNC(=O)[C@H]1CCc2cc(Nc3ncc4cc(F)c(-c5cnc6c(c5C)NCCO6)cc4n3)ccc21 [WO2022098806, Compound 1-119]"
19,9.59,"CNC(=O)C1(c2ccc(Nc3ncc4cc(F)c(-c5cnc6c(c5C)NCCO6)cc4n3)cc2)CCC1 [WO2022098806, Compound 1-121]"
20,10.40,"Cc1c(-c2cc3nc(Nc4ccc([C@H](C)S(C)(=O)=O)cc4)ncc3cc2F)cnc2c1NCCO2 [WO2022098806, Compound 1-124]"
21,10.22,"Cc1c(-c2cc3nc(Nc4ccc([C@@H]5CCN(C)C5=O)cc4)ncc3cc2F)cnc2c1NCCO2 [WO2022098806, Compound 1-125]"

row,pIC50,Compound
1,9.17,"Cc1c(-c2cc3nc(Nc4ccc([C@@H](C)S(C)(=O)=O)cc4)ncc3cc2F)cnc2c1NCCO2 [WO2022098806, Compound 1-126]"
2,9.02,"Cc1c(-c2cc3nc(Nc4ccc([C@H]5CCN(C)C5=O)cc4)ncc3cc2F)cnc2c1NCCO2 [WO2022098806, Compound 1-127]"
3,10.10,"Cc1c(-c2cc3nc(Nc4ccc(CS(=O)(=O)C(C)C)cc4)ncc3cc2F)cnc2c1NCCO2 [WO2022098806, Compound 1-128]"
4,10.05,"Cc1c(-c2ccc3cnc(Nc4ccc(CS(=O)(=O)C(C)C)cc4)nc3c2)cnc2c1NCCO2 [WO2022098806, Compound 1-129]"
5,10.15,"CNC(=O)Cc1ccc(Nc2ncc3cc(F)c(-c4cnc5c(c4C)NCCO5)cc3n2)cc1 [WO2022098806, Compound 1-130]"
6,9.80,"Cc1c(-c2cc3nc(Nc4ccc(CC(N)=O)cc4)ncc3cc2F)cnc2c1NCCO2 [WO2022098806, Compound 1-131]"
7,9.89,"Cc1c(-c2cc3nc(Nc4ccc(CC(=O)N(C)C)cc4)ncc3cc2F)cnc2c1NCCO2 [WO2022098806, Compound 1-132]"
8,10.10,"Cc1c(-c2cc3nc(Nc4ccc(CC(=O)N5CCOCC5)cc4)ncc3cc2F)cnc2c1NCCO2 [WO2022098806, Compound 1-133]"
9,10.40,"CCS(=O)(=O)Cc1ccc(Nc2ncc3ccc(-c4cnc5c(c4C)NCCO5)cc3n2)cc1 [WO2022098806, Compound 1-134]"
10,10.05,"COc1cc2c(cc1Nc1ncc3c(N)c(F)c(-c4cnc5c(c4C)NCCO5)cc3n1)CN(C)CC2 [WO2022098806, Compound 2-2]"
11,9.96,"CC(=O)N1CCCc2cc(Nc3ncc4c(N)c(F)c(-c5cnc6c(c5C)NCCO6)cc4n3)ccc21 [WO2022098806, Compound 2-7]"
12,9.92,"CC(=O)N[C@@H]1CCc2cc(Nc3ncc4c(N)c(F)c(-c5cnc6c(c5C)NCCO6)cc4n3)ccc21 [WO2022098806, Compound 2-10]"
13,10.10,"CC(=O)N[C@H]1CCc2cc(Nc3ncc4c(N)c(F)c(-c5cnc6c(c5C)NCCO6)cc4n3)ccc21 [WO2022098806, Compound 2-11]"
14,6.06,"CC(=O)N1CCc2ccc(Nc3ncc4c(N)c(F)c(-c5cnc6c(c5C)NCCO6)cc4n3)cc2C1 [WO2022098806, Compound 2-12]"
15,10.10,"Cc1c(-c2cc3nc(Nc4cccc(S(C)(=O)=O)c4)ncc3c(N)c2F)cnc2c1NCCO2 [WO2022098806, Compound 2-14]"
16,10.15,"CC(=O)Nc1ccc(Nc2ncc3c(N)c(F)c(-c4cnc5c(c4C)NCCO5)cc3n2)cc1 [WO2022098806, Compound 2-15]"
17,10.05,"Cc1c(-c2cc3nc(Nc4ccc(NS(C)(=O)=O)cc4)ncc3c(N)c2F)cnc2c1NCCO2 [WO2022098806, Compound 2-16]"
18,10.05,"Cc1c(-c2cc3nc(Nc4ccc(S(C)(=O)=O)cc4)ncc3c(N)c2F)cnc2c1NCCO2 [WO2022098806, Compound 2-17]"
19,10.30,"CNC(=O)c1ccc(Nc2ncc3c(N)c(F)c(-c4cnc5c(c4C)NCCO5)cc3n2)cc1 [WO2022098806, Compound 2-23]"
20,9.57,"Cc1c(-c2cc3nc(Nc4ccccc4)ncc3c(N)c2F)cnc2c1NCCO2 [WO2022098806, Compound 2-25]"
21,7.96,"Cc1c(-c2cc3nc(Nc4ccccc4C4CC4)ncc3c(N)c2F)cnc2c1NCCO2 [WO2022098806, Compound 2-26]"

row,pIC50,Compound
1,9.92,"COc1ncccc1Nc1ncc2c(N)c(F)c(-c3cnc4c(c3C)NCCO4)cc2n1 [WO2022098806, Compound 2-27]"
2,9.82,"CC(=O)N1CCC[C@@H]1c1ccc(Nc2ncc3c(N)c(F)c(-c4cnc5c(c4C)NCCO5)cc3n2)cc1 [WO2022098806, Compound 2-28]"
3,9.57,"CC(=O)N1CCC[C@H]1c1ccc(Nc2ncc3c(N)c(F)c(-c4cnc5c(c4C)NCCO5)cc3n2)cc1 [WO2022098806, Compound 2-29]"
4,10.10,"CC(=O)NCc1ccc(Nc2ncc3c(N)c(F)c(-c4cnc5c(c4C)NCCO5)cc3n2)cc1 [WO2022098806, Compound 2-30]"
5,9.72,"Cc1c(-c2cc3nc(Nc4cccc(S(=O)(=O)NC(C)(C)C)c4)ncc3c(N)c2F)cnc2c1NCCO2 [WO2022098806, Compound 2-33]"
6,9.92,"CNS(=O)(=O)c1cccc(Nc2ncc3c(N)c(F)c(-c4cnc5c(c4C)NCCO5)cc3n2)c1 [WO2022098806, Compound 2-34]"
7,9.82,"COc1cc2c(cc1Nc1ncc3c(N)c(F)c(-c4cnc5c(c4C)NCCO5)cc3n1)[C@@H](C)N(C)CC2 [WO2022098806, Compound 2-35]"
8,10.00,"COc1cc2c(cc1Nc1ncc3c(N)c(F)c(-c4cnc5c(c4C)NCCO5)cc3n1)[C@H](C)N(C)CC2 [WO2022098806, Compound 2-36]"
9,10.10,"Cc1c(-c2cc3nc(Nc4ccc5c(c4)C(C)(C)OC5=O)ncc3c(N)c2F)cnc2c1NCCO2 [WO2022098806, Compound 2-41]"
10,9.82,"Cc1c(-c2cc3nc(Nc4ccc5c(c4)CN(CC(C)(C)O)C5=O)ncc3c(N)c2F)cnc2c1NCCO2 [WO2022098806, Compound 2-42]"
11,10.10,"Cc1c(-c2cc3nc(Nc4ccc5c(c4)CCS5(=O)=O)ncc3c(N)c2F)cnc2c1NCCO2 [WO2022098806, Compound 2-43]"
12,9.72,"Cc1ccncc1-c1cc2nc(Nc3ccc(CS(C)(=O)=O)cc3)ncc2c(N)c1F [WO2022098806, Compound 2-44]"
13,7.60,"COc1cc2c(cc1Nc1ncc3c(N)c(F)c(-c4cnc5ncsc5c4)cc3n1)CN(C)CC2 [WO2022098806, Compound 2-47]"
14,9.15,"COc1cc2c(cc1Nc1ncc3c(N)c(F)c(-c4cnc5c(c4C)NCCO5)cc3n1)C(C)N(C)C(C)C2 (stereo not drawn) [WO2022098806, Compound 2-48]"
15,8.00,"COc1cc2c(cc1Nc1ncc3c(N)c(F)c(-c4cc5oc(=O)[nH]c5cc4C)cc3n1)CN(C)CC2 [WO2022098806, Compound 2-49]"
16,10.10,"COc1cc([C@@H]2CCN(C)C2=O)ccc1Nc1ncc2c(N)c(F)c(-c3cnc4c(c3C)NCCO4)cc2n1 [WO2022098806, Compound 2-54]"
17,8.79,"COc1cc([C@H](C)S(C)(=O)=O)ccc1Nc1ncc2c(N)c(F)c(-c3cnc4c(c3C)NCCO4)cc2n1 [WO2022098806, Compound 2-55]"
18,10.00,"COc1cc([C@@H](C)S(C)(=O)=O)ccc1Nc1ncc2c(N)c(F)c(-c3cnc4c(c3C)NCCO4)cc2n1 [WO2022098806, Compound 2-56]"
19,9.04,"COc1cc([C@H]2CCN(C)C2=O)ccc1Nc1ncc2c(N)c(F)c(-c3cnc4c(c3C)NCCO4)cc2n1 [WO2022098806, Compound 2-57]"
20,10.10,"COC1CC(NC(=O)c2ccc(Nc3ncc4c(N)c(F)c(-c5cnc6c(c5C)NCCO6)cc4n3)cc2)C1 (stereo not drawn) [WO2022098806, Compound 2-58]"
21,10.30,"Cc1c(-c2cc3nc(Nc4cc5c(cc4F)CCN(C)C5)ncc3c(N)c2F)cnc2c1NCCO2 [WO2022098806, Compound 2-59]"
